This is an account of results in article PMC3366684, “Studies on the Synthesis of Derivatives of Marine-Derived Bostrycin and Their Structure-Activity Relationship against Tumor Cells” (Marine Drugs, 2012).

Some results are limits rather than exact numbers.

In one series the test system is A549 cells. The experiment in a line: MTT cytotoxicity assay, A549. The conditions noted are these: for IC50: A549, human lung cancer cell line, MTT, 48 h exposure, mean ± SD, three independent experiments. Type of series: cell-based, human. The protocol: (§1) All compounds were evaluated for their in vitro cytotoxic activity against five human cancer cell lines including human breast MCF-7, human breast MDA-MB-435, human lung A549, human liver HepG2 and human colon HCT-116, and compared with their effects on the immortalized human breast epithelial cell line MCF-10A by MTT assay using epirubicin (an anticancer drug used widely in the clinic) as positive control.
(§2) MCF-7, MDA-MB-435, A549, HepG2 and HCT-116 cells were cultured in Dulbecco’s modification Eagle’s medium (DMEM, Invitrogen, Carlsbad, CA, USA) supplemented with 10% fetal bovine serum (FBS, Hyclone, Logan, UT, USA), 2 mM L-glutamine, 100 μg/mL streptomycin and 100 U/mL penicillin (Invitrogen). MCF-10A cells were cultured in keratinocyte serum free medium (KSFM) supplemented with 0.1–0.2 ng/mL human recombinant epidermal growth factor and 20–30 μg/mL bovine pituitary extract (Invitrogen). The cells were incubated at 37 °C in a humidified atmosphere with 5% CO2.
(§3) Cells were harvested during logarithmic growth phase and seeded in 96-well plates at a density of 1 × 10^4 cells/mL, and cultured at 37 °C in a humidified incubator (5% CO2) for 24 h, followed by exposure to various concentrations of compounds tested for 48 h. Subsequently 20 μL of MTT (Genview, Houston, TX, USA) solution (5 mg/mL) was added to each well and mixed, the cells were then incubated for an additional 4 h. Culture supernatant was moved, 150 μL of DMSO (Sangon Biotech, Shanghai, China) was added to each well to fully dissolve the MTT-formazan crystals. Cell growth inhibition was determined by measuring the absorbance (Abs) at λ = 570 nm using a microplate reader and calculated according to the following equation:
(§4) Growth inhibition = (1 − OD of treated cells/OD of control cells) × 100%
(§5) The half maximal inhibitory concentrations (IC50) were obtained from liner regression analysis of the concentration-response curves plotted for each tested compound.
In general terms: Formazan colour is commonly taken as a measure of viable cells.

The next series has as its system MCF-7 cells. The experiment in a line: MTT cytotoxicity assay, MCF-7. In kind it is cell-based, human. The conditions noted are these: for IC50: MCF7, human breast cancer cell line, MTT, 48 h exposure, mean ± SD, three independent experiments. How it is done:
as §1, §2, §3, §4, §5

Series [1] is described as follows: MTT cytotoxicity assay, MCF-10A. The conditions noted are these: MCF-10A cells, immortalized human breast epithelial cell line, 48 h exposure, mean ± SD, three independent experiments. Type of series: cell-based. The protocol: as §1, §2, §3, §4, §5
The next series relates to MDA-MB-435 cells. The experiment in a line: MTT cytotoxicity assay, MDA-MB-435. The conditions noted are these: for IC50: MDA-MB-435, human breast cancer cell line, MTT, 48 h exposure, mean ± SD, three independent experiments. In kind it is cell-based, human. How it is done:
as §1, §2, §3, §4, §5

The subject of a further series is HCT-116 cells. The experiment in a line: MTT cytotoxicity assay, HCT-116. The conditions noted are these: for IC50: HCT-116, human colon cancer cell line, MTT, 48 h exposure, mean ± SD, three independent experiments. Type of series: cell-based, human. How it is done: as §1, §2, §3, §4, §5
A further series has as its system HepG2 cells. The experiment in a line: MTT cytotoxicity assay, HepG2. In kind it is cell-based, human. The conditions noted are these: for IC50: human liver cancer cell line, MTT, 48 h exposure, mean ± SD, three independent experiments. How it is done: as §1, §2, §3, §4, §5
[2] abbreviates: ratio of IC50 values, bostrycin vs compound.

As usually defined, the IC50 is the concentration that gives 50% inhibition. Low readings indicate inhibition by little substance, high ones a need for much substance. By melting point is commonly meant the temperature, or range, at which the solid turns liquid. As to `CCCCCCSC1=C(SCCCCCC)C(=O)c2c(O)c3c(c(O)c2C1=O)C[C@](C)(O)[C@H](O)[C@H]3O` [Compound 25, 6,7-bis(n-Hexylthio)-6-demethoxybostrycin], the melting point lay within 112 to 113 °C. The compound further had an IC50 in the series with A549 cells of 0.71 ± 0.01 µM. In the series with MCF-7 cells, this compound registered an IC50 of 2.6 ± 0.45 µM. The same compound returned an IC50 at 48 h in series [1] of 35 ± 1.94 µM. Moreover, the IC50 in the series with MDA-MB-435 cells is 10.6 ± 1.11 µM. Also, inhibition in the series on HCT-116 cells was half-maximal at 0.74 ± 0.1 µM (IC50). Also, it took 3.33 ± 0.66 µM to reach half-maximal inhibition with HepG2 cells (Homo sapiens, HepG2, 48 h) (IC50).
As to `COC1=CC(=O)c2c(O)c3c(c(O)c2C1=O)C[C@](C)(O)[C@H](O)C3` [Compound 2, Deoxybostrycin], the melting point fell in the range of 224 to 225 °C. This compound came in with an IC50 in the series on A549 cells of 4.49 ± 0.13 µM. Besides, the IC50 in the series on MCF-7 cells turned out to be 2.69 ± 0.31 µM. The compound further registered an IC50 at 48 h in series [1] of 13.8 ± 0.76 µM. The same compound displayed an IC50 with MDA-MB-435 cells of 3.19 ± 0.92 µM. For the same compound, in the series on HCT-116 cells, the IC50 came out at 5.69 ± 0.25 µM. The midpoint of inhibition in the series with HepG2 cells (Homo sapiens, HepG2, 48 h), the IC50, lay at 9.99 ± 0.55 µM.
`C[C@]1(O)Cc2c(O)c3c(c(O)c2[C@H](O)[C@H]1O)C(=O)C=C(NCc1ccc(F)cc1)C3=O` [Compound 19, 6-(p-Fluorobenzylamino)-6-demethoxybostrycin] yielded a melting point of 147 to 148 °C. In the series with A549 cells, the half-maximal inhibitory concentration (IC50) was 6.25 ± 0.43 µM. In the series with MCF-7 cells, this compound yielded an IC50 of 7.94 ± 0.26 µM. The same compound showed an IC50 at 48 h in series [1] of 7.5 ± 0.69 µM. The compound further returned an IC50 in the series with MDA-MB-435 cells of 7.86 ± 1.2 µM. The compound further displayed an IC50 with HCT-116 cells of 4.92 ± 0.38 µM. In the series with HepG2 cells (Homo sapiens, HepG2, 48 h), the IC50 is above 50 µM.
`CCCCCCNC1=CC(=O)c2c(O)c3c(c(O)c2C1=O)C[C@](C)(O)[C@H](O)[C@H]3O` [Compound 12, 6-(n-Hexylamino)-6-demethoxybostrycin] returned a melting point of 203 to 204 °C. Further, in the series with A549 cells, the IC50 turned out to be 3.74 ± 0.67 µM. This compound registered an IC50 with MCF-7 cells of 4.87 ± 0.23 µM. Further, in the series on MDA-MB-435 cells, the midpoint of inhibition, the IC50, lay at 4.25 ± 0.75 µM. The 50% inhibitory concentration (IC50) in the series with HCT-116 cells was 4.06 ± 0.65 µM. Also, in the series with HepG2 cells (Homo sapiens, HepG2, 48 h), half-maximal inhibition (IC50) was put at 12.9 ± 0.96 µM.
The compound `COC1=CC(=O)c2c(O)c3c(c(O)c2C1=O)C[C@]1(C)OC(C)(C)O[C@@H]1[C@H]3O` [Compound 5, 2,3-O-(isopropylidene) Bostrycin] showed a melting point of 228 to 229 °C. For the same compound, the midpoint of inhibition in the series with A549 cells, the IC50, lay at 4.25 ± 0.16 µM. The same compound had an IC50 with MCF-7 cells of 6.87 ± 0.33 µM. The IC50 at 48 h in series [1] came out at 18.1 ± 1.3 µM. The IC50 with MDA-MB-435 cells was found to be 5.96 ± 0.21 µM. In the series on HCT-116 cells, it took 11 ± 1.35 µM to reach half-maximal inhibition (IC50). The same compound displayed an IC50 in the series with HepG2 cells (Homo sapiens, HepG2, 48 h) of 37 ± 1.97 µM.
`C[C@]1(O)Cc2c(O)c3c(c(O)c2[C@H](O)[C@H]1O)C(=O)C1=C(SCCS1)C3=O` [Compound 28, 6,7-(Ethan-1′,2′-yl-dithio)-6-demethoxybostrycin] had a melting point above 300 °C. The same compound registered an IC50 with A549 cells of 0.37 ± 0.04 µM. Also, the “fold more active than bostrycin, A549” value in the series on A549 cells (setting [2]) was 7.1 fold. In the series on MCF-7 cells, this compound returned an IC50 of 0.57 ± 0.04 µM. The “fold more active than bostrycin, MCF-7” value with MCF-7 cells (setting [2]) is given as 3.8 fold. For the same compound, half-maximal inhibition in series [1] (IC50 at 48 h) required 0.81 ± 0.11 µM. In the series on MDA-MB-435 cells, this compound had an IC50 of 0.63 ± 0.45 µM. Also, the “fold more active than bostrycin, MDA-MB-435” value in the series with MDA-MB-435 cells (setting [2]) turned out to be 4.5 fold. This compound gave an IC50 in the series with HCT-116 cells of 0.68 ± 0.08 µM. Further, the “fold more active than bostrycin, HCT-116” value in the series on HCT-116 cells (setting [2]) stood at 7.0 fold. Also, the IC50 with HepG2 cells was determined as 0.82 ± 0.01 µM. For the same compound, in the series on HepG2 cells (setting [2]), the “fold more active than bostrycin, HepG2” value amounted to 9.4 fold.
`COC1=CC(=O)c2c(O)c3c(c(O)c2C1=O)C[C@]1(C)OC(=O)O[C@@H]1[C@H]3O` [Compound 8, 2,3-O-(carbonyl) Bostrycin] came in with a melting point of 246 to 247 °C. The compound also showed an IC50 in the series with A549 cells of 0.52 ± 0.02 µM. The IC50 in the series on MCF-7 cells was 1.59 ± 0.16 µM. This compound displayed an IC50 at 48 h in series [1] of 21.7 ± 1.45 µM. Besides, in the series on MDA-MB-435 cells, the IC50 was 1.26 ± 0.12 µM. It took 2.92 ± 0.06 µM to reach half-maximal inhibition in the series on HCT-116 cells (IC50). It took 3.32 ± 0.58 µM to reach half-maximal inhibition with HepG2 cells (Homo sapiens, HepG2, 48 h) (IC50).
For the compound `COC1=CC(=O)c2c(O)c3c(c(O)c2C1=O)C[C@](C)(O)[C@H](O)[C@H]3O` [Compound 1, Bostrycin], the IC50 in the series on A549 cells amounted to 2.63 ± 0.33 µM; in the series with MCF-7 cells it was 2.18 ± 0.14 µM; with MDA-MB-435 cells it was 2.82 ± 0.17 µM; in the series on HCT-116 cells, 4.78 ± 0.03 µM; with HepG2 cells (Homo sapiens, HepG2, 48 h) it was 7.71 ± 0.72 µM. Besides, in series [1], half-maximal inhibition (IC50 at 48 h) required 14.1 ± 0.58 µM.
Compound `COc1ccc(NC2=CC(=O)c3c(O)c4c(c(O)c3C2=O)C[C@](C)(O)[C@H](O)[C@H]4O)cc1` [Compound 16, 6-(p-Methoxyphenylamino)-6-demethoxybostrycin] displayed a melting point of 202 to 203 °C. This compound displayed an IC50 in the series with A549 cells of 41.4 ± 2.86 µM. This compound returned an IC50 in the series on MCF-7 cells of 39.4 ± 0.68 µM. Besides, the IC50 in the series with MDA-MB-435 cells was determined as 36.4 ± 2.08 µM. This compound also displayed an IC50 with HCT-116 cells of 43.3 ± 1.56 µM. In addition, in the series with HepG2 cells (Homo sapiens, HepG2, 48 h), the 50% inhibitory concentration (IC50) amounted to 30.3 ± 1.63 µM.
